Assay results reported in DBAASP.
Converted amounts (≈) assume the structure as drawn. Values belong to the compound of their own block, whether it stands above or below them.

Columns and labels:
Assay in all cases: ≥ marks a high value that may be exact or a test limit, other limits are often not marked, values filed in µg/mL are converted to µM
[1] = system: Acinetobacter baumannii ATCC 19606
[2] = system: Escherichia coli BW25113 ΔsbmA
[3] = system: Escherichia coli BW25113
[4] = system: Escherichia coli
[5] = system: Klebsiella pneumoniae ATCC 700603
[6] = system: Pseudomonas aeruginosa ATCC 27853
[7] = system: Staphylococcus aureus ATCC 25923
[8] = system: Listeria monocytogenes EGD
[9] = system: Bacillus subtilis DSM 347
[10] = system: Escherichia coli DSM 1116
[11] = system: Franconibacter helveticus DSM 18390
[12] = system: Staphylococcus xylosus DSM 20267
[13] = system: Acinetobacter baumannii
[14] = system: Bacillus cereus CGMCC 1.932
[15] = system: Bacillus subtilis CMCC 63501
[16] = system: Enterococcus faecalis ATCC 29212
[17] = system: Escherichia coli 078
[18] = system: Escherichia coli K88
[19] = system: Escherichia coli K99
[20] = system: Escherichia coli UB1005
[21] = system: Listeria monocytogenes CGMCC 1.1075
[22] = system: Pseudomonas aeruginosa PAO1
[23] = system: Salmonella enterica subsp. enterica serovar Pullorum ATCC 7913
[24] = system: Salmonella enterica subsp. enterica serovar Typhimurium ATCC 14028
[25] = system: Salmonella typhimurium ATCC 7731
[26] = system: Staphylococcus aureus ATCC 43300
[27] = system: Staphylococcus epidermidis ATCC 12228
[28] = system: Candida albicans ATCC 2002
[29] = system: Candida albicans ATCC 90028
[30] = system: Candida parapsilosis ATCC 22019
[31] = system: Enterobacter cloacae ATCC 13047
[32] = system: Escherichia coli 37
[33] = system: Escherichia coli ATCC 25922
[34] = system: Klebsiella pneumoniae
[35] = system: Pseudomonas aeruginosa CMCCB 1010
[36] = system: Pseudomonas aeruginosa
[37] = system: Shigella dysenteriae
[38] = system: Staphylococcus aureus 37
[39] = system: Klebsiella pneumoniae E406-17
[40] = system: Pseudomonas aeruginosa E411-17
[41] = system: Staphylococcus aureus M838-17
[42] = system: Acinetobacter baumannii ATCC BAA-1605
[43] = system: Acinetobacter baumannii CR17
[44] = system: Enterococcus faecium ATCC 700221
[45] = system: Staphylococcus aureus ATCC 33591

- MIC [13]: 2 µM (≈ 3.44 µg/mL)
- MIC [14]: 8 µM (≈ 13.8 µg/mL)
- MIC [15]: 2 µM (≈ 3.44 µg/mL)
- MIC [16]: 4 µM (≈ 6.88 µg/mL)
- MIC [17]: 4 µM (≈ 6.88 µg/mL)
- MIC [18]: 4 µM (≈ 6.88 µg/mL)
- MIC [19]: 4 µM (≈ 6.88 µg/mL)
- MIC [20]: 8 µM (≈ 13.8 µg/mL)
- MIC [21]: 1 µM (≈ 1.72 µg/mL)
- MIC [6]: 16 µM (≈ 27.5 µg/mL)
- MIC [22]: 4 µM (≈ 6.88 µg/mL)
- MIC [23]: 8 µM (≈ 13.8 µg/mL)
- MIC [24]: 8 µM (≈ 13.8 µg/mL)
- MIC [25]: 4 µM (≈ 6.88 µg/mL)
- MIC [7]: 2 µM (≈ 3.44 µg/mL)
- MIC [26]: 2 µM (≈ 3.44 µg/mL)
- MIC [27]: 2 µM (≈ 3.44 µg/mL)
SMILES: NC(=O)[C@H](Cc1ccccc1)NC(=O)[C@H](CCCN=C(N)N)NC(=O)[C@H](Cc1c[nH]c2ccccc12)NC(=O)[C@H](CCCN=C(N)N)NC(=O)[C@H](Cc1c[nH]c2ccccc12)NC(=O)[C@H](Cc1c[nH]c2ccccc12)NC(=O)[C@H](Cc1c[nH]c2ccccc12)NC(=O)[C@H](CCCN=C(N)N)NC(=O)[C@H](Cc1c[nH]c2ccccc12)NC(=O)[C@@H](N)CCCN=C(N)N [RWRWWWRWRF]

- MIC [39]: ≥ 50 µM
- MIC [40]: 12.5 µM (≈ 16.4 µg/mL)
- MIC [41]: 6.25 µM (≈ 8.21 µg/mL)
SMILES: CC(C)C[C@H](NC(=O)[C@H](Cc1c[nH]c2ccccc12)NC(=O)[C@H](Cc1c[nH]c2ccccc12)NC(=O)[C@H](Cc1c[nH]c2ccccc12)NC(=O)[C@H](CCCN=C(N)N)NC(=O)[C@H](CCCN=C(N)N)NC(=O)[C@H](CCCN=C(N)N)NC(=O)[C@@H](N)CCCN=C(N)N)C(N)=O [RRRRWWWL]

- MIC [1]: 5.86 µM (≈ 8.49 µg/mL)
- MIC [42]: 2.76 µM (≈ 4 µg/mL)
- MIC [43]: ≥ 32.7 µM
- MIC [44]: 5.86 µM (≈ 8.49 µg/mL)
- MIC [33]: 5.86 µM (≈ 8.49 µg/mL)
- MIC [5]: 5.86 µM (≈ 8.49 µg/mL)
- MIC [6]: 11.7 µM (≈ 17 µg/mL)
- MIC [45]: 23.1 µM (≈ 33.5 µg/mL)
SMILES: CC[C@H](C)[C@H](NC(=O)[C@H](CCCCN)NC(=O)[C@H](CCCCN)NC(=O)[C@H](Cc1ccccc1)NC(=O)[C@H](CC(C)C)NC(=O)[C@H](CCCCN)NC(=O)[C@@H](N)CCCCN)C(=O)N[C@@H](CC(C)C)C(=O)N[C@@H](CCCN=C(N)N)C(=O)N[C@@H](Cc1ccc(O)cc1)C(=O)N[C@@H](CC(C)C)C(N)=O [KKLFKKILRYL]

Further lines, the compound ahead of its results:

SMILES: CC[C@H](C)[C@H](NC(=O)[C@@H]1CCCN1C(=O)[C@@H]1CCCN1C(=O)[C@H](CCCN=C(N)N)NC(=O)[C@H](Cc1ccccc1)NC(=O)[C@@H](N)CCCN=C(N)N)C(=O)N[C@@H](CCCN=C(N)N)C(=O)N[C@@H](CCCN=C(N)N)C(=O)N1CCC[C@H]1C(=O)N1CCC[C@H]1C(=O)N[C@H](C(=O)N[C@@H](CCCN=C(N)N)C(=O)N1CCC[C@H]1C(=O)N1CCC[C@H]1C(=O)N[C@@H](Cc1ccccc1)C(=O)N[C@@H](Cc1ccc(O)cc1)C(=O)N[C@@H](CCCN=C(N)N)C(=O)O)[C@@H](C)CC [RFRPPIRRPPIRPPFYR]
- MIC [1]: 64 µM (≈ 142 µg/mL)
- MIC [2]: ≥ 64 µM
- MIC [3]: 8 µM (≈ 17.8 µg/mL)
- MIC [4]: 4 µM (≈ 8.89 µg/mL)
- MIC [5]: > 64 µM
- MIC [6]: > 64 µM
- MIC [7]: > 64 µM

SMILES: CC[C@H](C)[C@H](NC(=O)[C@H](Cc1cnc[nH]1)NC(=O)[C@@H](NC(=O)[C@H](CCCN=C(N)N)NC(=O)[C@H](CCCCN)NC(=O)[C@H](CCCN=C(N)N)NC(=O)[C@H](CCCCN)NC(=O)[C@H](CC(N)=O)NC(=O)[C@H](Cc1ccc(O)cc1)NC(=O)[C@H](CC(N)=O)NC(=O)[C@@H]1CCCN1C(=O)[C@H](CCCN=C(N)N)NC(=O)[C@@H](NC(=O)[C@@H](N)CS)[C@@H](C)O)[C@@H](C)CC)C(=O)NCC(=O)O [CTRPNYNKRKRIHIG]
- MIC [8]: 5.76 µM (≈ 10.7 µg/mL)

SMILES: CC(C)C[C@H](NC(=O)[C@H](CCCCN)NC(=O)[C@H](CC(C)C)NC(=O)[C@H](CCCCN)NC(=O)[C@H](CC(C)C)NC(=O)[C@H](CCCCN)NC(=O)[C@H](CC(C)C)NC(=O)[C@H](CCCCN)NC(=O)[C@H](CC(C)C)NC(=O)[C@H](CCCCN)NC(=O)[C@H](CC(C)C)NC(=O)[C@H](CCCCN)NC(=O)[C@H](CC(C)C)NC(=O)[C@@H](N)CCCCN)C(N)=O [KLKLKLKLKLKLKL]
- MIC [9]: 2.34 µM (≈ 4 µg/mL)
- MIC [10]: 4.69 µM (≈ 8 µg/mL)
- MIC [11]: 2.34 µM (≈ 4 µg/mL)
- MIC [12]: 2.34 µM (≈ 4 µg/mL)

SMILES: CC[C@H](C)[C@H](NC(=O)[C@@H](NC(=O)[C@@H]1CCCN1C(=O)[C@H](CC(C)C)NC(=O)[C@@H](N)Cc1ccccc1)[C@@H](C)CC)C(=O)NCC(=O)N[C@@H](CCCCN)C(=O)N[C@@H](CC(C)C)C(=O)N[C@@H](CC(C)C)C(=O)N[C@@H](CO)C(=O)NCC(=O)N[C@@H](CC(C)C)C(=O)N[C@@H](CC(C)C)C(=O)O [FLPIIGKLLSGLL]
- MIC [28]: 7.23 µM (≈ 10 µg/mL)
- MIC [29]: 7.23 µM (≈ 10 µg/mL)
- MIC [30]: 1.81 µM (≈ 2.5 µg/mL)
- MIC [31]: 1.81 µM (≈ 2.5 µg/mL)
- MIC [16]: 3.61 µM (≈ 5 µg/mL)
- MIC [32]: 14.5 µM (≈ 20 µg/mL)
- MIC [33]: 1.81 µM (≈ 2.5 µg/mL)
- MIC [5]: 7.23 µM (≈ 10 µg/mL)
- MIC [34]: 28.9 µM (≈ 40 µg/mL)
- MIC [6]: 28.9 µM (≈ 40 µg/mL)
- MIC [35]: 7.23 µM (≈ 10 µg/mL)
- MIC [36]: 3.61 µM (≈ 5 µg/mL)
- MIC [37]: 14.5 µM (≈ 20 µg/mL)
- MIC [38]: 3.61 µM (≈ 5 µg/mL)
- MIC [7]: 0.867 µM (≈ 1.2 µg/mL)
